The source made the active and inactive calls. The calls are words filed in the database; no cut-off is given here.
Legend:
U-87MG ATCC = assay: Cytotoxicity against human U87MG cells at 250 nM after 6 days; type: functional, cell-based
[1] = Cytotoxicity against human U87MG cells after 6 days; type: functional, U-87MG ATCC; settings: U-87 MG, 144 h, read-out: LD50 (the source's name)

| Structure (SMILES) | Activity (U-87MG ATCC) | CC50 [1] [nM] |
| --- | --- | --- |
| CC[C@@]1(OC(=O)OCCOCCOCCOCCOC(=O)CCCC[C@@H]2CCSS2)C(=O)OCc2c1cc1n(c2=O)Cc2cc3ccccc3nc2-1 | Active | 20 |
| CC[C@@]1(O)C(=O)OCc2c1cc1n(c2=O)Cc2cc3ccccc3nc2-1 [CAMPTOTHECIN] | Active | 20 |
